The record followed here is patent publication US10543156B2, “Shaping keratin fibres using 2-oxazolidinone compounds” (The Procter & Gamble Company, priority 2015, dated 2020).

Structures are written as SMILES.

The assay in a line: Hair straightening efficacy on hair switches, expert grading. The settings on record: after 5 wash cycles; for Straightening efficacy Mean grade: 20% active agent in crosslinking composition with 100 ppm 4,5-dibromofluorescein, 100 ppm Eosin Y, water buffered at pH 10, irons at 121° C. with UV light at 380 nm, 8 passes, score on 0-10 scale (0 curly, 10 very straight). The method, then: The hair straightening efficacy is tested for the crosslinking compositions described herein. Switches of low lift naturally curly hair are employed. These are shampooed with a Pantene clarifying shampoo to ensure the hair is in a clean state with no residues that could affect the end result. The switches are then rinsed. Excess water is removed from the hair by wringing out the switches. The switches are treated with a crosslinking composition which is pre-prepared in a dark room. The crosslinking composition comprises: active agent as listed in TABLE 2; 100 ppm 4,5-dibromofluorescein; 100 ppm Eosin Y; QSP water buffered at pH 10. These ingredients are mixed on a spinner plate for 30 mins. The crosslinking composition is stored in an amber bottle or a bottle covered in electrical tape to ensure no light access to the crosslinking composition. 0.5 g of crosslinking composition per 1 g hair is employed. The crosslinking composition is left on the hair for 30 minutes. After this time, the hair is blow dried, brushed, and is then mechanically straightened with hybrid light and heat emitting straightening irons (at 250° F. [121° C.] and emitting UV light at 380 nm) with 8 passes.
The switches are then imaged. To simulate durability, the switches are then given one wash-and-dry cycle. One wash-and-dry cycle involves shampooing with a Hairtrition shampoo (Hairtrition Color Protect sulfate-free shampoo from Zotos), rinsing and then drying in a hot box. Once dry the switches are imaged again. The switches are then given 4 further wash-and-dry cycles. Once dry the switches are imaged again. An expert grader gives the images of the switches a score on a 0-10 scale. The scale is a standard scale set as curly hair having 4-5 nodes of curls is a score of 0 and very straight hair is a 10. Thus, the switches are compared to a normal state of hair.
Using an expert grader is reliable because the grader is trained on measuring/scaling the configuration of the hair from straight to curly in a consistent way. Numeric data obtained by this method is averaged, and statistical analysis is conducted using JMP statistical software available from SAS Institute at the 87% confidence level.

With `CC(=O)N1CCOC1=O` [N-acetyl-2-oxazolidinone], the “Straightening efficacy Mean grade” value worked out at 3.0. For `O=C1OCCN1CCO` [N-(hydroxyethyl)-2-oxazolidinone], the “Straightening efficacy Mean grade” value was 4.3. Also, the “Straightening efficacy compared with the control (in words)” value (statistical analysis at the 87% confidence level) was “significantly better straightening efficacy than the control”. Regarding `O=C1NCCO1` [2-oxazolidinone], the “Straightening efficacy Mean grade” value is on record as 3.7.
